The subject of this assay is RAW 264.7 macrophages. The experiment in a line: ROS production assay in LPS-activated macrophages. The following applies: NAC 10 mM; 30 min before and during LPS (1 μg/ml) stimulation, 0-4 h. It counts as cell-based, murine. The protocol: ROS production was measured as the relative fluorescence intensity. […] The data are expressed as the mean±SD for three separate experiments. *p<0.05, **p<0.01 compared to the LPS-treated group. RAW-Blue™ cells (Murine macrophages RAW264.7 stably transfected with the NF-κB reporter gene) purchased from InvivoGen (San Diego, Calif.). LPS (from Escherichia coli 0111:B4) and mouse antibodies against phospho-ERK1/2, phospho-JNK1/2, and phospho-p38 (all from Sigma, St. Louis, Mo.). Rabbit antibodies against mouse ERK1, JNK1, and p38, and HRP-labeled second antibodies were purchased from Santa Cruz Biotechnology, and IL-1β, IL-6, and TNF-α ELISA kits from R&D Systems. ROS production assay, NO production assay, NF-κB reporter assay, ELISA, and Western blotting were performed as described previously.

Take `CC(=O)N[C@@H](CS)C(=O)O` [NAC, N-acetyl cysteine, reference compound]: the “LPS-induced increase in ROS production” value is “reduced”.
